Results reported in patent publication US12439917B2, “Method for controlling phakopsora pachyrhizi having resistance against QoI fungicide” (SUMITOMO CHEMICAL COMPANY, LIMITED, priority 2020, dated 2025).

Assays:
[1] = tested on: soybean rust fungus (Phakopsora pachyrhizi) having an amino acid substitution of F129L on mitochondrial cytochrome b protein; assay: Comparative Test Example 1: soybean leaf disk test versus commercial QoI fungicides; assay type: in vivo; conditions: method of Test Example 1
Experimental: A soybean leaf (cv; Kurosengoku) was punched out to 1 cm diameter to prepare a leaf disk. Each 1 mL of 1.2% agar medium was dispensed in 24 well microplate. A piece of the leaf disk was placed on each well. To a mixture of 0.5 μL of Sorpol (registered trademark) 1200KX, 4.5 μL of DMSO, and 5 μL of xylene was added 20 μL of a solution containing 10,000 ppm of the test compound in DMSO. The resulting mixture was diluted with ion exchange water to prepare a spray solution containing a predetermined concentration of the test compound. The spray solution was sprayed in 10 μL per one leaf disk. After 1 day, an aqueous suspension of spores of soybean rust fungus (Phakopsora pachyrhizi) having an amino acid substitution of F129L on mitochondrial cytochrome b protein (1.0×10^5/mL) was inoculated onto the leaf disks. After the inoculation, the microplate was placed in a growth chamber (light on for 6 hours, light off for 18 hours, 23° C. temperature, 60% humidity). After 1 day, the leaf disks were air-dried to disappear water droplets on the surface of the leaf disk, and the microplate was placed again in the growth chamber for 10 to 14 days. Thereafter, a lesion area of soybean rust disease was assessed. […] Here the untreated means that the spray solution containing the test compound was not sprayed onto the leaf disk.
The test was conducted by using as a test compound the compound 1, 4 or 9 of the present invention, the present compound 7, 8, 15, 18, 23, 31 or 37, pyribencarb, azoxystrobin, dimoxystrobin, metominostrobin, Fluoxastrobin, or Kresoxim-methyl at 50 ppm according to a method described in the Test Example 1. The results are indicated in [Table A] and [Table B].

[2] = tested on: soybean rust fungus strain with single amino acid substitution of F129L in the cytochrome b gene; conditions: F129L QoI-resistant soybean rust fungi; background art; cited from earlier work

Row | Molecule | Lesion area (%) at 50 ppm [1] [%] | efficacy against the resistant fungi [2]
1 | CO/C=C(\Oc1cc(C2OCCCO2)ccc1C)C(=O)OC [Compound 4 of the present invention] | 10 | –
2 | CO/C=C(\Oc1cc(Cc2ccccc2)ccc1C)C(=O)OC [Present compound 18] | 0 | –
3 | CO/C=C(\Oc1cc(/N=C/N(C)c2ccccc2)ccc1C)C(=O)OC [Compound 9 of the present invention] | 10 | –
4 | CO/N=C(/C1=NOCCO1)c1ccccc1Oc1ncnc(Oc2ccccc2Cl)c1F [Fluoxastrobin] | 100 | reduced to the level of practical problems
5 | COC(=O)NCc1cc(/C(C)=N/OCc2cccc(C)n2)ccc1Cl [Pyribencarb] | 100 | reduced to the level of practical problems
6 | CO/C=C(/C(=O)OC)c1ccccc1Oc1cc(Oc2ccccc2C#N)ncn1 [Azoxystrobin] | 100 | reduced to the level of practical problems
7 | CO/C=C(/C(=O)OC)N(C)c1cccc(Oc2ccccc2C)c1 [Present compound 7] | 10 | –
8 | CO/C=C(\Oc1cc(Oc2ccccc2)ccc1C)C(=O)OC [Present compound 15] | 0 | –
9 | CO/N=C(/C(=O)OC)c1ccccc1COc1ccccc1C [Kresoxim-methyl] | 100 | reduced to the level of practical problems
10 | CO/C=C(\Oc1cc(C2CC2)ccc1C)C(=O)OC [Compound 1 of the present invention] | 0 | –
11 | CNC(=O)/C(=N/OC)c1ccccc1COc1cc(C)ccc1C [Dimoxystrobin] | 100 | reduced to the level of practical problems
12 | CO/C=C(\Oc1cccc(C(=O)c2ccccc2)c1)C(=O)OC [Present compound 8] | 10 | –
13 | Metominostrobin | 100 | reduced to the level of practical problems
